# Test system: SK-N-SH human neuroblastoma cells
# Test: Serum Deprivation/JC-1 Mitochondrial Membrane Potential (MMP) Assay
# Assay type: cell-based
# Settings: Homo sapiens, SK-N-SH; for EC50: 18 h, serum deprivation ~18 hours, JC-1 ratio normalized to peak value for 10 μM dimebolin, single curve fit to mean data of n=2-3; for Emax: percent maximal intensity in JC-1 ratio normalized to peak value for 10 μM dimebolin, serum deprivation, read-out: JC-1 max %
# Text: The method also involves a high-throughput assay using serum-deprivation conditions involving neuronal cells to screen for compounds that increase or preserve mitochondrial membrane potential. Such compounds can be found to aid in rescuing cells from energy-depletion that occurs in several neurodegenerative states. Mitochondrial-mediated apoptosis occurs in response to a wide range of apoptotic stimuli including p^53, c-myc, DNA damage, prooxidants, chemotherapeutic agents, serum starvation and death receptor activation (Lin C—H., Lu Y-Z., Cheng, F-C., Chu L-F. and Hsuch C-M. Bax-regulated mitochondrial-mediated apoptosis is responsible for the in vitro ischemia induced neuronal cell death of Sprague Dawley rat. Neuroscience Lett. 2005, 387, 22-27).
# Thus, this stress inducer, serum deprivation, combined with monitoring changes in the mitochondrial membrane potential in a 96-well format allows for the establishment of an efficient high-throughput screen (HTS) in order to evaluate the ability of compounds to increase mitochondrial membrane potential in the presence of stress and preserve health of the cell. Exemplary procedures for conducting such high-throughput assay are provided below.
# SK-N-SH human neuroblastoma cells obtained from American Type Culture Collection (Rockville, Md.) were maintained in the log phase of growth in Minimal Essential Media (MEM), 10% heat inactivated fetal calf serum and 100 units/mL antibiotic-antimycotic (AA). Cells were cultured and maintained in a humidified incubator at 37° C. under 5% CO2 and 95% air. Cells were trypsinized (0.25%) and subcultured every 3 days and used from 15-18 passages. All cell culture supplies were obtained from Invitrogen (Carlsbad, Calif.).
# SK-N-SH cells were plated 2-3 days in advance at a concentration of 50,000 cells/well onto collagen coated black-walled 96 well plates (Becton-Dickinson, Bedford, Mass.) in a total volume of […]. On day of experimental treatment, the media containing serum was aspirated from each well and rinsed once with MEM/1% AA without serum. The cells then were incubated overnight in 100 μL of MEM/1% AA (no serum) with and without dimebolin or novel chemical entities overnight for ˜18 hours. The following day, JC-1 dye (5,5′,6,6′-tetrachloro-1,1′,3,3′-tetraethylbenzimidazolcarbocyanide) was diluted 1:10 into MEM media according to the JC-1 Mitochondrial Membrane Potential Assay Kit: (Cayman Chemical Company, Ann Arbor, Mich.) and then 10 μL of the JC-1 dye solution was added to each well. The plates were centrifuged for 5 minutes at 400×g at room temperature followed by 40 minute incubation at 37° C. The plates were washed twice with 200 μL of provided Assay Buffer followed an addition of 100 μL of Assay Buffer to each well. The plates were read with an excitation and emission of 560 nm and 595 nM for red fluorescence and with an excitation and emission of 485 nm and 535 nM for green fluorescence to determine the final JC-1 value taking the red to green fluorescence ratio. This assay is based on change in mitochondrial membrane potential (MMP) using this lipophilic cationic dye, JC-1, by monitoring the changes in the ratio of red to green fluorescence as the MMP depolarizes. This change in MMP reflects the health of the cell with healthy, viable cells have a high JC-1 ratio and high MMP whereas apoptotic, unhealthy cells have a low JC-1 ratio or low MMP.
# For the ability of compounds to reverse the stress due to serum deprivation and increase the JC-1 ratio, the percent maximal intensity in JC-1 ratio was normalized to that induced by the peak value for 10 μM dimebolin and plotted against the compound concentration to calculate EC50 values and to control for plate-to-plate variability. Concentration-response data were analyzed using GraphPad Prism (San Diego, Calif.); the EC50 values were derived from a single curve fit to the mean data of n=2-3, in duplicates. […]
Structure (SMILES),EC50,Emax
"O=C(Cc1ccc(Cl)cc1)N1CCC2CN(Cc3ccccc3)CCN2c2ncccc21 (centres unmarked) [Example 53, 1-(9-benzyl-7,7a,8,9,10,11-hexahydropyrazino[1,2-d]pyrido[3,2-b][1,4]diazepin-5(6H)-yl)-2-(4-chlorophenyl)ethanone]",9.88 µM,210%
"Clc1ccc(CCN2CCC3CN(Cc4ccccc4)CCN3c3ncccc32)cc1 (centres unmarked) [Example 54, 9-benzyl-5-[2-(4-chlorophenyl)ethyl]-5,6,7,7a,8,9,10,11-octahydropyrazino[1,2-d]pyrido[3,2-b][1,4]diazepine]",3.59 µM,177%
"CN1CCC2CN(Cc3ccccc3)CCN2c2ncccc21 (centres unmarked) [Example 55, 9-benzyl-5-methyl-5,6,7,7a,8,9,10,11-octahydropyrazino[1,2-d]pyrido[3,2-b][1,4]diazepine]",9.95 µM,99%
"Fc1ccc(CN2CCN3c4ccccc4CN(Cc4ccc(Br)cc4)CC3C2)cc1 (centres unmarked) [Example 56, 6-(4-bromobenzyl)-3-(4-fluorobenzyl)-1,2,3,4,4a,5,6,7-octahydropyrazino[1,2-a][1,4]benzodiazepine]",5.17 µM,161%
"CN1CCN2c3ccccc3CN(Cc3ccc(Br)cc3)CC2C1 (centres unmarked) [Example 57, 6-(4-bromobenzyl)-3-methyl-1,2,3,4,4a,5,6,7-octahydropyrazino[1,2-a][1,4]benzodiazepine]",10.2 µM,167%
"CC1(C)C(C(=O)N2CCC3CN(Cc4ccccc4)CCN3c3ncccc32)C1(C)C (centres unmarked) [Example 58, (9-benzyl-7,7a,8,9,10,11-hexahydropyrazino[1,2-d]pyrido[3,2-b][1,4]diazepin-5(6H)-yl)(2,2,3,3-tetramethylcyclopropyl)methanone]",3.65 µM,215%
"CC1(C)C(CN2CCC3CN(Cc4ccccc4)CCN3c3ncccc32)C1(C)C (centres unmarked) [Example 59, 9-benzyl-5-[(2,2,3,3-tetramethylcyclopropyl)methyl]-5,6,7,7a,8,9,10,11-octahydropyrazino[1,2-d]pyrido[3,2-b][1,4]diazepine]",3.4 µM,306%
"O=C(Cc1ccc(Cl)nc1)N1Cc2ccccc2N2CCN(Cc3ccccc3)CC2C1 (centres unmarked) [Example 60, 1-(3-benzyl-1,2,3,4,4a,5-hexahydropyrazino[1,2-a][1,4]benzodiazepin-6(7H)-yl)-2-(6-chloropyridin-3-yl)ethanone]",4.14 µM,224%
"Clc1ccc(CCN2Cc3ccccc3N3CCN(Cc4ccccc4)CC3C2)cn1 (centres unmarked) [Example 63, 3-benzyl-6-[2-(6-chloropyridin-3-yl)ethyl]-1,2,3,4,4a,5,6,7-octahydropyrazino[1,2-a][1,4]benzodiazepine]",1.95 µM,173%
"Fc1ccc(CN2CCN3c4ncccc4N(CC4CC4)CCC3C2)cc1 (centres unmarked) [Example 64, 5-(cyclopropylmethyl)-9-(4-fluorobenzyl)-5,6,7,7a,8,9,10,11-octahydropyrazino[1,2-d]pyrido[3,2-b][1,4]diazepine]",5.66 µM,139%
"Fc1ccc(CN2CCN3c4ncccc4N(CC4CCC4)CCC3C2)cc1 (centres unmarked) [Example 65, 5-(cyclobutylmethyl)-9-(4-fluorobenzyl)-5,6,7,7a,8,9,10,11-octahydropyrazino[1,2-d]pyrido[3,2-b][1,4]diazepine]",4.59 µM,133%
"CC(C)(C)OC(=O)N1CCN2c3ccccc3CN(Cc3ccc(Br)cc3)CC2C1 (centres unmarked) [Example 66, tert-butyl 6-(4-bromobenzyl)-1,2,4a,5,6,7-hexahydropyrazino[1,2-a][1,4]benzodiazepine-3(4H)-carboxylate]",4.84 µM,192%
"CC(C)(C)OC(=O)N1CCN2c3ccccc3CN(Cc3ccc(Br)cc3)C(=O)C2C1 (centres unmarked) [Example 67, tert-butyl 6-(4-bromobenzyl)-5-oxo-1,2,4a,5,6,7-hexahydropyrazino[1,2-a][1,4]benzodiazepine-3(4H)-carboxylate]",5.06 µM,215%
"Fc1ccc(CN2CCN3c4ncccc4N(C[C@@H]4CCN4)CCC3C2)cc1 (stereo partly drawn) [Example 68, 5-[(2S)-azetidin-2-ylmethyl]-9-(4-fluorobenzyl)-5,6,7,7a,8,9,10,11-octahydropyrazino[1,2-d]pyrido[3,2-b][1,4]diazepine]",8.64 µM,157%
"Fc1ccc(CN2CCN3c4ncccc4N(CC4CNC4)CCC3C2)cc1 (centres unmarked) [Example 69, 5-(azetidin-3-ylmethyl)-9-(4-fluorobenzyl)-5,6,7,7a,8,9,10,11-octahydropyrazino[1,2-d]pyrido[3,2-b][1,4]diazepine]",10.3 µM,154%
"O=C1C2CNCCN2c2ccccc2CN1Cc1ccc(Br)cc1 (centres unmarked) [Example 70, 6-(4-bromobenzyl)-2,3,4,4a,6,7-hexahydropyrazino[1,2-a][1,4]benzodiazepin-5(1H)-one]",9.61 µM,156%
"Brc1ccc(CN2Cc3ccccc3N3CCNCC3C2)cc1 (centres unmarked) [Example 71, 6-(4-bromobenzyl)-1,2,3,4,4a,5,6,7-octahydropyrazino[1,2-a][1,4]benzodiazepine]",7.85 µM,105%
"O=C(C1CC1)N1CCC2CNCCN2c2ncccc21 (centres unmarked) [Example 72, cyclopropyl(7,7a,8,9,10,11-hexahydropyrazino[1,2-d]pyrido[3,2-b][1,4]diazepin-5(6H)-yl)methanone]",13.3 µM,98%
"O=C1C2CN(Cc3ccc(F)cc3)CCN2c2ccccc2CN1Cc1ccc(Br)cc1 (centres unmarked) [Example 73, 6-(4-bromobenzyl)-3-(4-fluorobenzyl)-2,3,4,4a,6,7-hexahydropyrazino[1,2-a][1,4]benzodiazepin-5(1H)-one]",4.27 µM,229%
"O=C(c1cccnc1)N1CCN2c3ncccc3N(CC3CC3)CCC2C1 (centres unmarked) [Example 74, [5-(cyclopropylmethyl)-6,7,7a,8,10,11-hexahydropyrazino[1,2-d]pyrido[3,2-b][1,4]diazepin-9(5H)-yl](pyridin-3-yl)methanone]",7.82 µM,109%
"O=C(N1CCOCC1)N1Cc2ccccc2N2CCNCC2C1 (centres unmarked) [Example 75, 1,2,3,4,4a,5-hexahydropyrazino[1,2-a][1,4]benzodiazepin-6(7H)-yl(morpholin-4-yl)methanone]",> 10 µM,48%
"O=C(N1CCOCC1)N1Cc2ccccc2N2CCN(Cc3ccc(F)cc3)CC2C1 (centres unmarked) [Example 76, [3-(4-fluorobenzyl)-1,2,3,4,4a,5-hexahydropyrazino[1,2-a][1,4]benzodiazepin-6(7H)-yl](morpholin-4-yl)methanone]",7.06 µM,127%
"CN1CCN2c3ccccc3CN(C(=O)N3CCOCC3)CC2C1 (centres unmarked) [Example 77, (3-methyl-1,2,3,4,4a,5-hexahydropyrazino[1,2-a][1,4]benzodiazepin-6(7H)-yl)(morpholin-4-yl)methanone]",10.2 µM,57%
"O=C(Cn1ncccc1=O)N1CCC2CN(Cc3ccccc3)CCN2c2ccccc21 (centres unmarked) [Example 78, 2-[2-(3-benzyl-2,3,4,4a,5,6-hexahydropyrazino[1,2-a][1,5]benzodiazepin-7(1H)-yl)-2-oxoethyl]pyridazin-3(2H)-one]",8.55 µM,143%
"O=C(c1ccccc1)N1CCN2c3ccccc3CN(C(=O)N3CCOCC3)CC2C1 (centres unmarked) [Example 79, (3-benzoyl-1,2,3,4,4a,5-hexahydropyrazino[1,2-a][1,4]benzodiazepin-6(7H)-yl)(morpholin-4-yl)methanone]",9.25 µM,86%
